{
  "source": "patent US12246044B2",
  "about": "“Bacterial and cell compositions for the treatment of colorectal cancer and methods for assessing a prognosis for patients having the same” (priority 2017, dated 2025)",
  "key": {"ileal and colonic IEC": {"tested_on": "ileal and colonic IEC", "assay": "Immunohistochemistry of cleaved caspase-3 in colon and ileal mucosae after OXA i.p.", "assay_type": "in vivo, mice", "settings": "6 h after OXA i.p.; ileal versus colonic IEC", "method": "Donor mice were treated with oxaliplatin (10 mg/kg) i.p. for 6 h to induce gut cell death. Control animals were treated with vehicle (PBS) alone. The composition of the commensal gut microbiota in the treated and non-treated groups was maintained synchronized by cohousing. At the end of the treatment, mice were euthanized and the ileum was collected to isolate IEC. One million IECs were then injected s.c. into the left flank of the recipient mice. The procedure was repeated once, 7 days later. Tumor challenge was performed on the right flank 7 days after the last immunization, with doses which obtain 100% of tumor incidence in naïve mice, MC38 (1×10^6 cells), MCA205 (0.8×10^6 cells), CT26 (1×10^6 cells) and 4T1 (0.3×10^6 cells).\nFFPE gut sections were deparaffinised and rehydrated through a series of graded alcohols and distilled water. Antigen retrieval was performed by pre-treating sections with 0.01 M sodium citrate buffer (pH 6.0, Diapath) for 30 min in a 98° C. water bath. Endogenous peroxidase activity was inhibited by treating sections with 3% […] (#S202386, DAKO) for 10 min. Sections were blocked with IHC/ISH Super Blocking (#PV6122, LeicaBiosystem) for 10 min. […] Peroxidases were detected with Di Amino Benzidine-peroxidase substrate kit (DAKO), and counterstained with Mayer's haematoxylin. […]"}, "MC38 tumors": {"tested_on": "MC38 tumors", "assay": "FMT avatar mice (GF mice colonized with PCAC patient colonic content), MC38, OXA", "assay_type": "in vivo, C57BL/6J mice", "settings": "12 PCAC patient feces tested", "method": "(§1) Syngeneic C57BL/6J mice were implanted with 1×10^6 MC38 WT cells subcutaneously and treated intraperitoneally (i.p.) when tumors were 20 to 30 mm^2 in size with 10 mg/kg oxaliplatin or vehicule (PBS). The composition of the commensal gut microbiota in the treated and non-treated groups was maintained synchronized by cohousing. Tumor size was routinely monitored every 3 days by means of a caliper.\nFrozen fecal samples were thawed and thoroughly vortexed. Large particulate material was allowed to settle by gravity. 200 μl of supernatant was administered in a single dose by oral gavage. Additionally, an extra 100 μl was topically applied onto the fur of each animal. The resulting gnotobiotic mice were maintained in positive pressurized isolators with irradiated food and autoclaved water. […]\nData analyses and representations were performed either with the statistical environment R, Microsoft Excel (Microsoft Co., Redmont, WA, USA) or Prism 5 (GraphPad, San Diego, CA, USA). Tumor growth was analysed with dedicated software (https://kroemerlab.shinyapps.io/TumGrowth). Briefly, data was subjected to a linear mixed effect modeling applied to log pre-processed tumor surfaces. p-values were calculated by testing jointly whether both tumor growth slopes and intercepts (on a log scale) were different between treatment groups of interests. […]"}, "[1]": {"tested_on": "small intestine enteroids", "assay": "OXA treatment of stem cell derived small intestine enteroids in vitro", "assay_type": "cell-based, C57BL/6J mice", "settings": "culminating in calreticulin cell surface exposure, data not shown", "method": "Crypts were isolated and enriched from the ileum of 8-12 week old C57BL/6J mice as previously described (24) with the following modifications. Briefly, washed pieces of ileum were incubated in crypt chelating buffer (2 mM EDTA in PBS) for 30 minutes on ice. Following the removal of crypt chelating buffer, fragments were vigorously rinsed 3 times with PBS containing 10% FCS and filtered through a 70-μm cell strainer (BD Bioscience). Crypts were pelleted, washed with Advanced DMEM/F12 (ADF) (Invitrogen), resuspended in 1 mL of Matrigel growth factor reduced basement membrane matrix (Corning) and 50 uL drops were pipetted into a 24 well plate. Crypts were overlayed with ADF containing the following: 100 U/mL penicillin G sodium, 100 μg/mL streptomycin sulphate, 2 mM L-glutamine, 10 mM HEPES, 1× N2 supplement, 1× B27 supplement, 50 ng/mL mEGF, 100 ng/mL mNoggin (Peprotech, Hamburg, Germany), N-acetylcysteine (Sigma) (reagents from Invitrogen unless otherwise indicated) and 10% conditioned medium of R-Spondin-1 transfected HEK 293T cells.\nIEC suspensions were obtained from enteroids by means of 3 wash dissociation method, as described above. […]"}, "ileal mucosae": {"tested_on": "ileal mucosae", "assay": "qRT-PCR of immune gene transcripts in ileal mucosae of avatar mice", "assay_type": "in vivo", "settings": "avatar responders compared to avatar non-responders", "method": "Total RNA from gut biopsies was extracted with RNeasy Mini Kit (Qiagen) and then reverse transcribed into cDNA with the SuperScript III Reverse Transcriptase and the RNaseOUT™ Recombinant Ribonuclease Inhibitor (Life Technologies, Saint Aubin, France), in the presence of random primers (Promega, Charbonnieres, France) and the Deoxynucleoside Triphosphate Set, PCR grade (Roche Diagnostics, Meylan, France). cDNA was analyzed by real-time quantitative PCR (RT-qPCR) with the TaqMan method with TaqMan® Gene Expression Assays using the Universal Master Mix II (Invitrogen) according to the manufacturer's instructions using the 7500 Fast Real Time PCR system (Applied Biosystems). Expression was normalized to the expression of the housekeeping gene of Beta 2 Microglobulin by means of the 2^−ΔCt method."}, "MC38 cancers": {"tested_on": "MC38 cancers", "assay": "MC38 tumor model in SPF mice, OXA + anti-PD-1 Abs plus oral gavage of live bacteria", "assay_type": "in vivo, C57BL/6J mice", "settings": "SPF mice (eubiosis), oral gavage of 10^9 cfu live bacteria before and after OXA", "method": "as §1\nPD-1 blockade was performed by i.p. treatment with anti-PD-1 mAbs (RMP1-14; 200 μg/mouse) or respective isotype controls (2A3) (all antibodies from Bioxcell).\nErysipelothrix tonsillarum and Solobacterium moorei were provided by Prof. Ivo Gomperts Boneca, Institut Pasteur, France. Bacteroides fragilis, Alistipes onderdonkii, Erysipelatoclostridium ramosum, Dialister invisus, Paraprevotella clara isolates were isolated in our laboratory from ileal mucus from patients used in vaccination experiments. Species were grown on COS plates in aerobic or an anaerobic atmosphere created using anaerobic generators (Biomerieux) at 37° C. for 24-72 hrs. Colonization of ATB pre-treated or GF C57BL/6J mice was performed by oral gavage with 100 μl of suspension containing 1×10^9 bacteria in PBS. For bacterial gavage, suspensions of 10^9 CFU/ml were obtained using a fluorescence spectrophotometer (Eppendorf) at an optical density of 1 measured at a wavelength of 600 nm. […]"}, "naïve CD4+ T cells": {"tested_on": "naïve CD4+ T cells", "assay": "Differentiation of naive CD4+ T cells into Th1 cells by DCs charged with HIEC-6 (IFNg ELISA)", "assay_type": "cell-based, human", "settings": "DCs charged with allogeneic HIEC-6 pre-exposed to bacteria and/or OXA; 6 healthy volunteers", "method": "CD14+ cells were isolated from PBMC obtained from healthy donors (Miltenyi Kit). Monocytes were differentiated into DCs by adding GM-CSF and IL-4 in the culture medium for 6 days. On day 6, immature DCs were harvested and charged with apoptotic intestinal epithelial cells.\nFor apoptotic IEC cells preparation, HIEC-6 cells (ATCC) were treated with bacteria 1 h, OXA 3 h, and ATB 1 h, and then left ON. The next morning, Apoptotic cells were harvested, washed 3× in PBS and added to the DC culture.\nNaïve CD4 T cells were isolated from the matched donor for each experiment (Miltenyi kit) and added to the DC-IEC culture at a 10:1 ratio. The final co-culture was incubated for 6 days. On day 6, anti-CD3 and anti-CD28 mAb were added to the culture. After 24 h incubation supernatants were assayed for IFNg by ELISA (Biolegend)."}},
  "data": [
    {"molecule": "O=C1[O][Pt]2([NH][C@@H]3CCCC[C@H]3[NH]2)[O]C1=O", "note": "[OXA, Oxaliplatin]", "values": [
      {"measurement": "apoptosis-associated cleavage of caspase-3 in vivo", "setting": "ileal and colonic IEC", "value": "far more prominent in ileal than colonic IEC"},
      {"measurement": "patient feces inducing complete resistance to OXA (avatar non-responders)", "setting": "MC38 tumors", "value": 4},
      {"measurement": "patient feces resulting in antitumor efficacy of OXA comparable to SPF mice (avatar responders)", "setting": "MC38 tumors", "value": "8/12"},
      {"measurement": "apoptosis of enteroids", "setting": "[1]", "value": "triggered a dose-dependent apoptosis"},
      {"measurement": "ileal TH1/TFH immune tone (Tbx21, Bcl6, Il27, Gata3, Ahr expression) in response to OXA", "setting": "ileal mucosae", "value": "decrease of the ileal TH1/TFH immune tone"}
    ]},
    {"molecule": "Bacteroides fragilis", "values": [
      {"measurement": "OXA+anti-PD-1 Ab-mediated anticancer effects against established MC38 cancers", "setting": "MC38 cancers", "value": "improved OXA+anti-PD-1 Ab-mediated anticancer effects"},
      {"measurement": "HIEC-6 rendered immunogenic (differentiation of T cells into Th1 cells, IFN-gamma)", "setting": "naïve CD4+ T cells", "value": "rendered immunogenic"}
    ]}
  ]
}
